{"source": "ChEMBL document CHEMBL1201862", "about": "“PubChem BioAssay data set” (2004)", "assay_in_all_cases": "growth of human tumour cells (NCI), 48 h", "key": {"BT-549": {"test_system": "BT-549"}, "SR": {"test_system": "SR"}, "RPMI-8226": {"test_system": "RPMI-8226"}, "SK-MEL-5": {"test_system": "SK-MEL-5"}, "IGROV-1": {"test_system": "IGROV-1"}, "HL-60": {"test_system": "HL-60"}, "HCT-15": {"test_system": "HCT-15"}, "Malme-3M": {"test_system": "Malme-3M"}, "UACC-62": {"test_system": "UACC-62"}, "OVCAR-8": {"test_system": "OVCAR-8"}, "UO-31": {"test_system": "UO-31"}, "COLO 205": {"test_system": "COLO 205"}, "HOP-92": {"test_system": "HOP-92"}, "CCRF-CEM": {"test_system": "CCRF-CEM"}, "SNB-19": {"test_system": "SNB-19"}, "Hs-578T": {"test_system": "Hs-578T"}, "SF-295": {"test_system": "SF-295"}, "SK-MEL-28": {"test_system": "SK-MEL-28"}, "SK-OV-3": {"test_system": "SK-OV-3"}, "DU-145": {"test_system": "DU-145"}, "UACC-257": {"test_system": "UACC-257"}, "OVCAR-3": {"test_system": "OVCAR-3"}, "ACHN": {"test_system": "ACHN"}, "SF-539": {"test_system": "SF-539"}, "LOX IMVI": {"test_system": "LOX IMVI"}, "MCF7": {"test_system": "MCF7"}, "NCI-H522": {"test_system": "NCI-H522"}, "MDA-MB-435": {"test_system": "MDA-MB-435"}, "SW-620": {"test_system": "SW-620"}, "HCT-116": {"test_system": "HCT-116"}, "EKVX": {"test_system": "EKVX"}, "CAKI-1": {"test_system": "CAKI-1"}, "OVCAR-4": {"test_system": "OVCAR-4"}, "HT-29": {"test_system": "HT-29"}, "K562": {"test_system": "K562"}, "NCI-H226": {"test_system": "NCI-H226"}, "SK-MEL-2": {"test_system": "SK-MEL-2"}, "SNB-75": {"test_system": "SNB-75"}, "OVCAR-5": {"test_system": "OVCAR-5"}, "TK-10": {"test_system": "TK-10"}, "HCC 2998": {"test_system": "HCC 2998"}, "SF-268": {"test_system": "SF-268"}, "A498": {"test_system": "A498"}, "PC-3": {"test_system": "PC-3"}, "U-251": {"test_system": "U-251"}, "HOP-62": {"test_system": "HOP-62"}, "NCI-H460": {"test_system": "NCI-H460"}, "A549": {"test_system": "A549"}, "RXF 393": {"test_system": "RXF 393"}, "786-0": {"test_system": "786-0"}, "SN12C": {"test_system": "SN12C"}, "NCI-H23": {"test_system": "NCI-H23"}, "NCI/ADR-RES": {"test_system": "NCI/ADR-RES"}, "KM12": {"test_system": "KM12"}, "MDA-N": {"test_system": "MDA-N"}, "MOLT-4": {"test_system": "MOLT-4"}}, "note": "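1) Cells in 96-well plates. 2) Compound, 48 h, 5 concentrations. 3) Linear interpolation between surrounding doses. 4) Unreached endpoint = highest concentration. GI50 is the concentration that inhibits growth by half.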 Active and inactive are the calls of the source. Cut-off read from the data, not from the text of the source: active = GI50 up to about 1.1 µM and inactive = higher."}
{"smiles": "Oc1cccc2cccnc12", "values": [{"measurement": "GI50", "setting": "BT-549", "value": "61.1 µM (inactive)"}, {"measurement": "GI50", "setting": "SR", "value": "0.342 µM (active)"}, {"measurement": "GI50", "setting": "RPMI-8226", "value": "0.918 µM (active)"}, {"measurement": "GI50", "setting": "SK-MEL-5", "value": "4.86 µM (inactive)"}, {"measurement": "GI50", "setting": "IGROV-1", "value": "4.27 µM (inactive)"}, {"measurement": "GI50", "setting": "HL-60", "value": "0.294 µM (active)"}]}
{"smiles": "O=C(Nc1nc2c(=O)[nH]cnc2s1)c1ccccc1", "values": [{"measurement": "GI50", "setting": "BT-549", "value": "> 100 µM (inactive)"}, {"measurement": "GI50", "setting": "HCT-15", "value": "> 100", "unit": "µM"}, {"measurement": "GI50", "setting": "Malme-3M", "value": "> 100 µM (inactive)"}, {"measurement": "GI50", "setting": "UACC-62", "value": "> 100 µM (inactive)"}, {"measurement": "GI50", "setting": "OVCAR-8", "value": "> 100 µM (inactive)"}, {"measurement": "GI50", "setting": "UO-31", "value": "97.9 µM (inactive)"}, {"measurement": "GI50", "setting": "COLO 205", "value": "> 100 µM (inactive)"}, {"measurement": "GI50", "setting": "HOP-92", "value": "49.1 µM (inactive)"}, {"measurement": "GI50", "setting": "CCRF-CEM", "value": "> 100 µM (inactive)"}, {"measurement": "GI50", "setting": "SNB-19", "value": "> 100 µM (inactive)"}, {"measurement": "GI50", "setting": "SR", "value": "0.315 µM (active)"}, {"measurement": "GI50", "setting": "Hs-578T", "value": "61.5 µM (inactive)"}, {"measurement": "GI50", "setting": "SF-295", "value": "> 100 µM (inactive)"}, {"measurement": "GI50", "setting": "SK-MEL-28", "value": "> 100 µM (inactive)"}, {"measurement": "GI50", "setting": "SK-MEL-5", "value": "> 100 µM (inactive)"}, {"measurement": "GI50", "setting": "SK-OV-3", "value": "> 100 µM (inactive)"}, {"measurement": "GI50", "setting": "DU-145", "value": "73.1 µM (inactive)"}, {"measurement": "GI50", "setting": "UACC-257", "value": "> 100 µM (inactive)"}, {"measurement": "GI50", "setting": "OVCAR-3", "value": "> 100 µM (inactive)"}, {"measurement": "GI50", "setting": "ACHN", "value": "91 µM (inactive)"}, {"measurement": "GI50", "setting": "SF-539", "value": "> 100 µM (inactive)"}, {"measurement": "GI50", "setting": "LOX IMVI", "value": "64 µM (inactive)"}, {"measurement": "GI50", "setting": "MCF7", "value": "45.6 µM (inactive)"}, {"measurement": "GI50", "setting": "NCI-H522", "value": "> 100 µM (inactive)"}, {"measurement": "GI50", "setting": "MDA-MB-435", "value": "88.5 µM (inactive)"}, {"measurement": "GI50", "setting": "SW-620", "value": "> 100 µM (inactive)"}, {"measurement": "GI50", "setting": "HCT-116", "value": "> 100 µM (inactive)"}, {"measurement": "GI50", "setting": "EKVX", "value": "> 100 µM (inactive)"}, {"measurement": "GI50", "setting": "CAKI-1", "value": "43.6 µM (inactive)"}, {"measurement": "GI50", "setting": "OVCAR-4", "value": "> 100 µM (inactive)"}, {"measurement": "GI50", "setting": "HT-29", "value": "50.4 µM (inactive)"}, {"measurement": "GI50", "setting": "K562", "value": "62.5 µM (inactive)"}, {"measurement": "GI50", "setting": "NCI-H226", "value": "> 100 µM (inactive)"}, {"measurement": "GI50", "setting": "SK-MEL-2", "value": "> 100 µM (inactive)"}, {"measurement": "GI50", "setting": "SNB-75", "value": "44.2 µM (inactive)"}, {"measurement": "GI50", "setting": "OVCAR-5", "value": "> 100 µM (inactive)"}, {"measurement": "GI50", "setting": "TK-10", "value": "68.9 µM (inactive)"}, {"measurement": "GI50", "setting": "IGROV-1", "value": "71.8 µM (inactive)"}, {"measurement": "GI50", "setting": "HL-60", "value": "53.8 µM (inactive)"}, {"measurement": "GI50", "setting": "HCC 2998", "value": "> 100 µM (inactive)"}, {"measurement": "GI50", "setting": "SF-268", "value": "> 100 µM (inactive)"}, {"measurement": "GI50", "setting": "A498", "value": "83.4 µM (inactive)"}, {"measurement": "GI50", "setting": "PC-3", "value": "> 100 µM (inactive)"}, {"measurement": "GI50", "setting": "U-251", "value": "> 100 µM (inactive)"}, {"measurement": "GI50", "setting": "HOP-62", "value": "> 100 µM (inactive)"}, {"measurement": "GI50", "setting": "NCI-H460", "value": "41.5 µM (inactive)"}, {"measurement": "GI50", "setting": "A549", "value": "81.7 µM (inactive)"}, {"measurement": "GI50", "setting": "RXF 393", "value": "55.7 µM (inactive)"}, {"measurement": "GI50", "setting": "786-0", "value": "> 100 µM (inactive)"}, {"measurement": "GI50", "setting": "SN12C", "value": "> 100 µM (inactive)"}, {"measurement": "GI50", "setting": "NCI-H23", "value": "> 100 µM (inactive)"}, {"measurement": "GI50", "setting": "NCI/ADR-RES", "value": "> 100 µM (inactive)"}]}
{"smiles": "Cc1ccc(Cl)c2c(=O)c3ccc([N+](=O)[O-])cc3sc12", "values": [{"measurement": "GI50", "setting": "BT-549", "value": "> 100 µM (inactive)"}, {"measurement": "GI50", "setting": "HCT-15", "value": "> 100", "unit": "µM"}, {"measurement": "GI50", "setting": "KM12", "value": "> 100 µM (inactive)"}, {"measurement": "GI50", "setting": "UACC-62", "value": "> 100 µM (inactive)"}, {"measurement": "GI50", "setting": "OVCAR-8", "value": "> 100 µM (inactive)"}, {"measurement": "GI50", "setting": "UO-31", "value": "> 100 µM (inactive)"}, {"measurement": "GI50", "setting": "COLO 205", "value": "> 100 µM (inactive)"}, {"measurement": "GI50", "setting": "SNB-19", "value": "> 100 µM (inactive)"}, {"measurement": "GI50", "setting": "SF-295", "value": "82.2 µM (inactive)"}, {"measurement": "GI50", "setting": "RPMI-8226", "value": "> 100 µM (inactive)"}, {"measurement": "GI50", "setting": "SK-MEL-5", "value": "> 100 µM (inactive)"}, {"measurement": "GI50", "setting": "DU-145", "value": "> 100 µM (inactive)"}, {"measurement": "GI50", "setting": "MDA-N", "value": "> 100 µM (inactive)"}, {"measurement": "GI50", "setting": "UACC-257", "value": "> 100 µM (inactive)"}, {"measurement": "GI50", "setting": "OVCAR-3", "value": "> 100 µM (inactive)"}, {"measurement": "GI50", "setting": "ACHN", "value": "> 100 µM (inactive)"}, {"measurement": "GI50", "setting": "MCF7", "value": "> 100 µM (inactive)"}, {"measurement": "GI50", "setting": "HCT-116", "value": "> 100 µM (inactive)"}, {"measurement": "GI50", "setting": "CAKI-1", "value": "> 100 µM (inactive)"}, {"measurement": "GI50", "setting": "K562", "value": "> 100 µM (inactive)"}, {"measurement": "GI50", "setting": "SK-MEL-2", "value": "> 100 µM (inactive)"}, {"measurement": "GI50", "setting": "MOLT-4", "value": "> 100 µM (inactive)"}, {"measurement": "GI50", "setting": "OVCAR-5", "value": "> 100 µM (inactive)"}, {"measurement": "GI50", "setting": "PC-3", "value": "> 100 µM (inactive)"}, {"measurement": "GI50", "setting": "HOP-62", "value": "79.8 µM (inactive)"}, {"measurement": "GI50", "setting": "A549", "value": "> 100 µM (inactive)"}, {"measurement": "GI50", "setting": "786-0", "value": "> 100 µM (inactive)"}, {"measurement": "GI50", "setting": "NCI-H23", "value": "> 100 µM (inactive)"}]}
